Results: ChEMBL document CHEMBL4422644, “Synthesis and evaluation of α-aminoacyl amides as antitubercular agents effective on drug resistant tuberculosis” (Eur J Med Chem, 2019)
Converted amounts (≈) assume the structure as drawn.

Key:
[1] = tested on: Mycobacterium tuberculosis; test: Antitubercular activity against Mycobacterium tuberculosis H37Rv after 7 days by alamar blue assay; assay type: functional; settings: 168 h
CHO-K1 = test: Cytotoxicity against CHOK1 cells after 24 hrs by MTT assay; assay type: cell-based; settings: Cricetulus griseus, CHO-K1, 24 h
[2] = Selectivity index, ratio of IC50 for CHOK1 cells to MIC for Mycobacterium tuberculosis H37Rv; assay type: toxicity; settings: hamster, read-out: Selectivity Index
A549 = test: Cytotoxicity against human A549 cells after 24 hrs by MTT assay; assay type: functional, cell-based; settings: A549, 24 h
DU-145 = test: Cytotoxicity against human DU145 cells after 24 hrs by MTT assay; assay type: functional, cell-based; settings: DU-145, 24 h
HeLa = test: Cytotoxicity against human HeLa cells after 24 hrs by MTT assay; assay type: functional, cell-based
HepG2 = test: Cytotoxicity against human HepG2 cells after 24 hrs by MTT assay; assay type: functional, cell-based; settings: HepG2, 24 h
MCF7 = test: Cytotoxicity against human MCF7 cells after 24 hrs by MTT assay; assay type: functional, cell-based; settings: MCF7, 24 h
[3] = Cytotoxicity against […] B16 cells after 24 hrs by MTT assay; assay type: functional, cell-based; settings: B16, 24 h
[4] = Cytotoxicity against HEK cells after 24 hrs by MTT assay; assay type: cell-based; settings: Homo sapiens, HEK293, 24 h
[5] = Selectivity index, ratio of IC50 for HEK cells to MIC for Mycobacterium tuberculosis H37Rv; assay type: toxicity; settings: human, read-out: Selectivity Index
Escherichia coli = test: Antibacterial activity against Escherichia coli ATCC 25922 after 24 hrs; assay type: functional; settings: ATCC 25922, 24 h
Staphylococcus aureus = test: Antibacterial activity against Staphylococcus aureus ATCC 29213 after 24 hrs; assay type: functional; settings: ATCC 29213, 24 h
Pseudomonas aeruginosa = test: Antibacterial activity against Pseudomonas aeruginosa ATCC 27853 after 24 hrs; assay type: functional; settings: ATCC 27853, 24 h
Klebsiella pneumoniae = test: Antibacterial activity against Klebsiella pneumoniae ATCC BAA-1705 after 24 hrs; assay type: functional; settings: ATCC BAA-1705, 24 h
Acinetobacter baumannii = test: Antibacterial activity against Acinetobacter baumannii ATCC BAA-1605 after 24 hrs; assay type: functional; settings: ATCC BAA-1605, 24 h
[6] = tested on: Mycolicibacterium fortuitum; test: Antibacterial activity against Mycobacterium fortuitum after 7 days by alamar blue assay; assay type: functional; settings: 168 h
Mycobacteroides chelonae = test: Antibacterial activity against Mycobacterium chelonae after 7 days by alamar blue assay; assay type: functional; settings: 168 h
[7] = tested on: Mycobacteroides abscessus; test: Antibacterial activity against Mycobacterium abscessus after 7 days by alamar blue assay; assay type: functional; settings: 168 h
[8] = tested on: Mycobacterium tuberculosis; test: Antitubercular activity against Mycobacterium tuberculosis H37Rv after 6 days by alamar blue assay; assay type: functional; settings: 144 h
[9] = tested on: Mycobacterium tuberculosis; test: Antitubercular activity against Mycobacterium tuberculosis H37Rv assessed as microbial killing at 4 fold MIC incubated for 6 days by MPN assay; assay type: functional, organism-based

| Structure (SMILES) | MIC [1] [µM] | IC50 (CHO-K1) [µM] | selectivity ratio [2] | IC50 (A549) [µM] | IC50 (DU-145) [µM] | IC50 (HeLa) [µM] | IC50 (HepG2) [µM] | IC50 (MCF7) [µM] | IC50 [3] [µM] | IC50 [4] [µM] | selectivity ratio [5] | MIC (Escherichia coli) [µM] | MIC (Staphylococcus aureus) [µM] | MIC (Pseudomonas aeruginosa) [µM] | MIC (Klebsiella pneumoniae) [µM] | MIC (Acinetobacter baumannii) [µM] | MIC [6] [µM] | MIC (Mycobacteroides chelonae) [µM] | MIC [7] [µM] | other results |
| --- | --- | --- | --- | --- | --- | --- | --- | --- | --- | --- | --- | --- | --- | --- | --- | --- | --- | --- | --- | --- |
| Cc1cccc(N(C(=O)c2c(C)noc2C)C(C(=O)NC2CCCCC2)c2ccccc2)c1C (stereo not given) | 3.12 (≈ 1.43 µg/mL) | 47.5 | 15.1 | 8.49 | 9.95 | 8.67 | 10.4 | 3.05 | 27.7 | 97.6 | 31.3 | > 50 | > 50 | > 50 | > 50 | > 50 | > 50 | > 50 | > 50 | – |
| Cc1nc(C)c(C(=O)N(c2cccc(C)c2C)C(C(=O)NC2CCCCC2)c2ccncc2)s1 (stereo not given) | 1.56 (≈ 0.744 µg/mL) | 71.8 | 45.5 | 6.6 | 10.9 | 10.5 | 14.5 | 4.49 | 11.6 | 48.9 | 31.4 | > 50 | > 50 | > 50 | > 50 | > 50 | > 50 | > 50 | > 50 | – |
| Cc1cccc(N(C(=O)C2CCCCN2)C(C(=O)NC2CCCCC2)c2ccccc2)c1C (stereo not given) | 3.12 (≈ 1.4 µg/mL) | 54.4 | 4.3 | 9.74 | 8.82 | 10.3 | 10.6 | 3.31 | 16.4 | 174 | 55.7 | > 50 | > 50 | > 50 | > 50 | > 50 | > 50 | > 50 | > 50 | – |
| Cc1nc(C)c(C(=O)N(c2cccc(C)c2C)C(C(=O)NC2CCCCC2)c2ccccc2)s1 (stereo not given) | 12.5 (≈ 5.95 µg/mL) | 27.9 | 2.1 | 12.5 | 12.6 | 8.29 | 9.34 | 11 | 15.5 | 34.4 | – | > 50 | > 50 | > 50 | > 50 | > 50 | > 50 | > 50 | > 50 | MIC [8]: 12.5 µM (≈ 5.95 µg/mL) |
| Cc1ccc(N(C(=O)c2sc(C)nc2C)C(C(=O)NC2CCCCC2)c2cccnc2)cc1 (stereo not given) | 3.12 (≈ 1.44 µg/mL) | 161 | 51.6 | 11.7 | 16.6 | 9.11 | 6.75 | 5.99 | 17.7 | 59.1 | 18.9 | > 50 | > 50 | > 50 | > 50 | > 50 | > 50 | > 50 | > 50 | – |
| Cc1nc(C)c(C(=O)N(c2cccc(C)c2C)C(C(=O)NC2CCCCC2)c2cccnc2)s1 (stereo not given) | 0.78 (≈ 0.372 µg/mL) | 107 | 136 | 8.62 | 10 | 9.58 | 14 | 6.39 | 13.4 | 81.1 | 104 | > 50 | > 50 | > 50 | > 50 | > 50 | > 50 | > 50 | > 50 | Activity [9]: Dose-dependent effect |
